Reference: patent publication US11400107B2, “Cancer treatments” (NuCana plc, priority 2016, dated 2022)
Entries after “also recorded” stand apart in the source; their conditions may differ.

Test system: advance progressive cancers refractory to, or relapsed on, all conventional therapies
Experiment: ProGem1 dose escalation clinical study of NUC-1031
Format: in vivo, human
Parameters: CA125 level: unit not given here
Description: The following data were generated in clinical studies of NUC-1031 in human patients with advance progressive cancers that are refractory to, or have relapsed on, all conventional therapies that have been used to date. The results clearly illustrate the ability of NUC-1031 to successfully treat refractory cancers.
Although the primary objectives of the dose escalation part of the study were to determine the Recommended Phase II Dose (RP2D) and safety profile, secondary objectives included determining the PK profile, however effective treatment of patients with a range of refractory cancers has also been observed as part of this study.
A total of 68 patients have been entered into this dose escalation study, of which 49 were evaluable for clinical response in that they have received at least 2 Cycles of NUC-1031 and were therefore eligible for a RECIST 1.1 assessment.
NUC-1031 was administered as a 5 to 30 minute intravenous slow bolus injection. • Schedule A: NUC-1031 was administered on days 1, 8, 15 of a 4 weekly Cycle. • Schedule B: NUC-1031 was administered on days 1, 5, 8, 12, 15, 19, of a 4 weekly Cycle. Evaluable Patients [n=49]
Evaluable patients were patients that received ≥2 Cycles of NUC-1031 and were therefore eligible for a RECIST 1.1 assessment at the end of Cycle 2. Where the disease response duration, measured in months, is followed by a “+” this indicates ongoing disease control as of the latest cut-off date.

[1] = Patient 004, breast cancer, 500 mg/m^2 weekly
[2] = Patient 005, ovarian cancer, 500 mg/m^2 weekly
[3] = Patient 006, cholangiocarcinoma, 375 mg/m^2 twice weekly, then 500 mg/m^2
[4] = Patient 007, colorectal cancer, 375 mg/m^2 twice weekly, then 500 mg/m^2 weekly
[5] = Patient 008, cancer of unknown primary, 375 mg/m^2 twice weekly
[6] = Patient 010, endometrial cancer, 750 then 500 mg/m^2 weekly
[7] = Patient 011, uterine carcinosarcoma, 375 mg/m^2 twice weekly
[8] = Patient 011, uterine carcinosarcoma, 375 mg/m^2 twice weekly, then 625 mg/m^2 weekly
[9] = Patient 012, cholangiocarcinoma, 375 mg/m^2 twice weekly, then 625 mg/m^2 weekly
[10] = Patient 013, cervical cancer, 750, 625, then 500 mg/m^2 weekly
[11] = Patient 017, lung cancer, 750 then 625 mg/m^2 weekly
[12] = Patient 018, lung cancer, 625 mg/m^2 weekly
[13] = Patient 021, fallopian tube cancer, 625 mg/m^2 weekly
[14] = Patient 025, mesothelioma, 725 mg/m^2 weekly
[15] = Patient 026, colorectal cancer, 725 mg/m^2 weekly
[16] = Patient 027, ovarian cancer, 725, 675, then 625 mg/m^2 weekly
[17] = Patient 029, breast cancer, 725 mg/m^2 weekly
[18] = Patient 030, ovarian cancer, 725 mg/m^2 weekly
[19] = Patient 032, oesophageal cancer, 750 mg/m^2 weekly
[20] = Patient 033, cholangiocarcinoma, 750 mg/m^2 weekly
[21] = Patient 036, renal carcinoma, 825 then 750 mg/m^2 weekly
[22] = Patient 037, pancreatic cancer, 1,000 then 900 mg/m^2 weekly

C[C@H](NP(=O)(OC[C@H]1O[C@@H](n2ccc(N)nc2=O)C(F)(F)[C@@H]1O)Oc1ccccc1)C(=O)OCc1ccccc1 (stereo partly drawn) [NUC-1031, 2′-deoxy-2′,2′-difluoro-D-cytidine-5′-O-[phenyl (benzoxy-L-alaninyl)] phosphate]
Best response to RECIST [1]: Stable Disease | Duration of response to RECIST [1]: 12 months | Best response to RECIST [2]: Stable Disease | Duration of response to RECIST [2]: 15 months | CA125 level (Patient 005, ovarian cancer, end of Cycle 6 (208 at start of study)): 140 | Best response to RECIST [3]: Stable Disease | Duration of response to RECIST [3]: 3 months | CA19.9 level (Patient 006, cholangiocarcinoma, after two doses (from 125,002)): 59,285 | Adverse events (grade) [4]: thrombocytopaenia (G3) | Best response to RECIST [4]: Stable Disease | Duration of response to RECIST [4]: 3 months | CEA level (Patient 007, colorectal cancer, after treatment (from 361)): 286 | CA19.9 level (Patient 007, colorectal cancer, after treatment (from 3,151)): 2,957 | Adverse events (grade) [5]: transient (G3) transaminitis (ALT and AST) | Best response to RECIST [5]: Stable Disease | Duration of response to RECIST [5]: 3 months | Adverse events (grade) [6]: neutropenia (G3); also recorded: transient Grade 3 anaemia | Best response to RECIST [6]: Stable Disease | Duration of response to RECIST [6]: 9 months | CA125 level (Patient 010, endometrial cancer, after treatment (from 727)): 488 | Adverse events (grade) [7]: transient neutropaenia (G3); also recorded: low haemoglobin (G2) | Reduction in tumour volume [7]: 26% | Best response to RECIST [8]: Stable Disease | Duration of response to RECIST [8]: 4 months | Best response to RECIST [9]: Stable Disease | Duration of response to RECIST [9]: 8 months | Best response to RECIST [10]: Partial Response | Duration of response to RECIST [10]: 9 months | PFS [10]: 11 months | Best response to RECIST (Patient 014, mesothelioma, 750 then 625 mg/m^2 weekly): Progressive Disease | Best response to RECIST (Patient 015, cancer (unknown primary), 750, 625, then 500 mg/m^2 weekly): Partial Response | Reduction in tumour size (Patient 015, cancer (unknown primary), CT scan on 9 Jan. 2015): approximately 58% | Adverse events (grade) (Patient 015, cancer (unknown primary), Cycle 1 Day 8): thrombocytopenia (G3); also recorded: lymphopenia (G3); also recorded: neutropenia (G2) | PFS (Patient 015, cancer (unknown primary), ongoing): ≥ 24 months | Duration of response to RECIST (Patient 015, cancer (unknown primary), ongoing, 750, 625, then 500 mg/m^2 weekly): ≥ 20 months | Best response to RECIST [11]: Partial Response | Duration of response to RECIST [11]: 3 Months | PFS [11]: 10 Months | Best response to RECIST [12]: Stable Disease | Duration of response to RECIST [12]: 4 months | Best overall response [13]: Partial Response | Duration of Partial Response according to GCIG criteria [13]: 9 months | Duration of Partial Response according to RECIST [13]: 3 months | CA125 reduction from baseline (Patient 021, fallopian tube cancer, baseline to end of Cycle 6): 91% | CA125 level (Patient 021, fallopian tube cancer, end of Cycle 6 (baseline 372)): 35 | Best response to RECIST (Patient 024, cancer of unknown primary, 675 mg/m^2 weekly): Progressive Disease | Best response to RECIST [14]: Stable Disease | Duration of response to RECIST [14]: 4 months | Best response to RECIST [15]: Stable Disease | Duration of response to RECIST [15]: 4 months | Adverse events (grade) (Patient 027, ovarian cancer, 725 mg/m^2, following Cycle 1 Day 1, a DLT): elevated ALT (G3) | Best response to RECIST [16]: Stable Disease | Duration of response to RECIST [16]: 8 months | Reduction in tumour volume [16]: 23% | ALT level (Patient 027, ovarian cancer, day 7 after Cycle 1 Day 1 at 725 mg/m^2 (96 at baseline)): 256 U/L | CA125 level (Patient 027, ovarian cancer, end of Cycle 6 (188 at baseline)): 99 | Best response to RECIST [17]: Stable Disease | Duration of response to RECIST [17]: 4 months | Best response to RECIST [18]: Stable Disease | Duration of response to RECIST [18]: 3 months | Best response to RECIST (Patient 031, cholangiocarcinoma, 750 mg/m^2 weekly, end of Cycle 2 CT scan): Progressive Disease | Best response to RECIST [19]: Stable Disease | Duration of response to RECIST [19]: 2 months | Best response to RECIST [20]: Stable Disease | Duration of response to RECIST [20]: 3 months | Adverse events (grade) (Patient 036, renal carcinoma, 825 mg/m^2, following Cycle 5 Day 1): thrombocytopenia (G3) | Best response to RECIST [21]: Stable Disease | Duration of response to RECIST [21]: 5 months | Reduction in tumour volume (Patient 036, renal carcinoma, end of Cycle 4 CT scan): 7% | Best response to RECIST [22]: Partial Response | Duration of response to RECIST [22]: 1 month | PFS [22]: 4 months | Reduction in tumour volume (Patient 037, pancreatic cancer, CT scan on 29 Apr. 2014): 30% | CEA level (Patient 037, pancreatic cancer, after treatment (536 at baseline)): 42 | CA19.9 level (Patient 037, pancreatic cancer, after treatment (15,000 at baseline)): 4,000 | Reduction in tumour volume (Patient 037, pancreatic cancer, end of Cycle 2 CT scan): 18.4% | Best response to RECIST (Patient 038, ovarian cancer, 900 mg/m^2 weekly): Progressive Disease | Increase in tumour volume (Patient 038, ovarian cancer, end of Cycle 2 scan): 25%
